Data as given in patent publication US9950007B2, “Neuronal protection by cerium oxide nanoparticles” (UNIVERSITY OF CENTRAL FLORIDA RESEARCH FOUNDATION, INC., priority 2011, dated 2018).
“Also recorded” adds a separate entry of the source.

Key:
[1] = Decay of ONOO^− followed at 302 nm by UV-visible spectroscopy
Procedure: The decay of ONOO^− was followed in the absence and presence of CeO2 NPs (FIG. 2A and Supplementary FIG. 3: Effect of CeO2 NPs on the rate of decay of ONOO— in vitro varying pH. ONOO— (25 μM) was added at various pH's alone and in the presence of CeO2 NPs (100 μM), SiO2 NPs (100 μM), glutathione (GSH) (0.5 mM). (A) Peroxynitrite absorbance followed at 302 nm in 100 mM sodium phosphate buffer at pH 8.6. (N=4). GSH, known general scavenger and SiO2 NPs were added as positive and negative controls, respectively. Rate of ONOO—(black traces) decomposition was increased with CeO2 NPs (blue traces) in a similar manner of GSH (red traces). Rate of decomposition was not affected by presence of SiO2 NPs (green traces). B) 100 mM sodium phosphate buffer at pH 9.5. (N=3). Rate of ONOO—(black traces) decomposition was increased with CeO2 NPs (blue traces) in a similar manner of GSH (red traces). Absorbance was normalized by subtracting the final absorbance from initial absorbance and dividing by the amplitude. As stock solutions of ONOO— contain 0.3 M NaOH, control incubations were performed with equivalent amounts of NaOH. All in vitro experiments were performed using phosphate buffers containing 1 μM DPTA.). The in vitro assays were repeated using various phosphate buffers while varying the pH's. Since carbon dioxide is known to enhance the rate of ONOO^− decomposition (38), the change in absorbance at 302 nm was followed in potassium phosphate buffer (pH 8.0), which was degassed by argon. […] This change of absorbance in response to addition of CeO2 NPs in these studies also mimics the scavenging seen with glutathione, a known antioxidant that protects cells from free radicals and peroxides (39). […]
UV-visible spectroscopy was used to measure decomposition of ONOO^− in the presence and absence of CeO2 NPs. […] Each sample was analyzed for a total of 600 seconds with a cycle time of 0.5 seconds at a wavelength of 302 nm using buffer containing 100 mM sodium phosphate buffer (pH 9.5-8.0) and 1 μM diethylenetriaminepentaacetic acid (DPTA) with or without CeO2 NPs. […]

[2] = ONOO^−-mediated APF oxidation in vitro (fluorescence spectroscopy); conditions: ONOO^− 20 μM, fluorescence 515 nm (ex. 490 nm)
Procedure: To obtain further insight into the ONOO^− scavenging abilities of CeO2 NPs, the yield of oxidized APF was followed by fluorescent spectroscopy using the oxidizable probe, 3′-(p-aminophenyl) fluorescein (APF) as an indicator (FIG. 2B). APF is an aromatic amino-fluorescein derivative that has little intrinsic fluorescence but undergoes oxidation by only hydroxyl radical, hypochlorate ion, and certain peroxidase intermediates such as ONOO^−, but is inert to NO., O2^⋅− and H2O2 (40).
ONOO^− (20 μM) was added to APF along with varying amounts CeO2 NPs. Glutathione (Fisher, Fair Lawn, N.J.) and uric acid (Avocado, Research Chemicals, Ltd.) known scavengers of ONOO^−, were used as positive controls. Fluorescence at 515 nm (ex. 490 nm) was measured using a Varian Cary Eclipse fluorescence spectrophotometer (Palo Alto, Calif.).

[3] = test system: mitochondrial morphology in cortical neurons; assay: Mitochondrial fragmentation in neurons expressing DsRed2-Mito; format: cell-based, rat; conditions: Aβ 25-35 10 μM, 6 h; nanoceria 100 nM or NAC 50 μM, 3 h pretreatment
From the text: To test whether nanoceria would prevent the Aβ-induced mitochondrial fragmentation, the mitochondrial morphology by fluorescence microscopy in neurons expressing DsRed2-Mito, a red fluorescent protein targeted to the mitochondrial matrix was visualized.
Cultures were either transfected with DsRed2-Mito on day 5 using LipoFectamine2000® or immunostained for microtubule-associated protein 2 (MAP2) for visualization of processes. […] For Aβ (25-25) treated cultures, Aβ (25-35) or reverse (35-25) was left to oligomerize for 24 h at 25° C. before adding to cultures at 10 μM for 6 h. Cells were fixed in 3.7% formaldehyde and 5% sucrose in PBS for 20 min at 37° C. […] Cells with fragmented mitochondria and condensed chromatin by Hoechst 33342 staining were scored as dead neurons. To evaluate mitochondrial fragmentation and cell death of a large number of neurons, manual scoring was carried out of neurons grown on glass coverslips using conventional fluorescence microscopy.
Neurons were grown on poly-Lysine coated glass cover slips as described before and transfected with DsRed2-Mito after 5 days in vitro (DIV) using Lipofectamine2000®. […] Quantification of mitochondrial fragmentation and neuronal cell death was performed as described (30). Fluorescence microscopy and image acquisition of mitochondrial morphology was performed as previously described (98).

[4] = test system: DRP1 phosphorylation at S616; assay: Western blot of p-DRP1 S616 in neurons; format: cell-based, rat; conditions: preaggregated Aβ 25-35 10 μM, 6 h; nanoceria 100 nM or NAC 50 μM, 3 h pretreatment
Procedure: To measure the levels of p-DRP1 S616, neurons were lysed in buffer containing 50 mM Tris-Cl, pH 7.0, 150 mM NaCl, 1 mM MgCl2, 1 mM NaF, 1 mM NaVO4, 1% NP40, 10% glycerol and complete Protease Inhibitor Cocktail Tablets (Roche Applied Science, US). Membranes were blocked with 5% nonfat milk in TBS (pH 8.0) with 0.05% Tween20 for 3 h at room temperature (RT) and were incubated with primary rabbit polyclonal antibodies for p-DRP1 S616 (Cell Signaling) (1:1000) overnight at 4° C. The membranes were then washed four times (5 min) with TBS (0.05% Tween) and incubated for 2 h at room temperature with anti-rabbit horseradish peroxidase-conjugated secondary antibodies (GE Healthcare)(1:15,000) in blocking solution. After 4 washes (5 min) of TBS (0.05% Tween), immunocomplexes were then detected using the Super-Signal West-Dura or Femto chemiluminescent substrates (Pierce, Thermoscientific, Rockford, Ill.). For re-probing the membranes were stripped with Restore Western Blot Stripping Buffer (Thermo-Scientific) according to the manufacturer and incubated with mouse monoclonal antibodies for DRP1 (BD Biosciences, clone 8/DLP1) (1:1000) antibody or with polyclonal rabbit antibodies for β-actin (Cell Signaling) (1:1000).

[5] = test system: cortical neurons; assay: Scoring for neuronal cell death under nitrosative stressors; format: cell-based, rat; conditions: oligomerized Aβ 25-35 10 μM, 6 h; nanoceria 100 nM or NAC 50 μM, 3 h pretreatment
[6] = cited from earlier work

## N[C@@H](CCC(=O)N[C@@H](CS)C(=O)NCC(=O)O)C(=O)O [GSH, glutathione]
[1]; 100 mM sodium phosphate buffer pH 8.6, ONOO^− 25 μM, CeO2 NPs 100 μM, SiO2 NPs 100 μM, GSH 0.5 mM
  rate of ONOO^− decomposition: increased
[1]; 100 mM sodium phosphate buffer pH 9.5, ONOO^− 25 μM, CeO2 NPs 100 μM, GSH 0.5 mM
  rate of ONOO^− decomposition: increased
[2]
  oxidation of APF by ONOO^−: prevented the oxidation of APF

## CC(=O)N[C@@H](CS)C(=O)O [NAC, N-acetyl-L-cysteine]
[3]
  Aβ25-35-induced mitochondrial fragmentation (fluorescence micrographs): prevented
[4]
  Aβ 25-35-induced DRP1 S616 phosphorylation: abolished
[5]
  cell viability / cell death after Aβ (25-35): relieved; also recorded: reduced

## O=c1[nH]c(=O)c2[nH]c(=O)[nH]c2[nH]1 [uric acid]
[1]; potassium phosphate buffer pH 8.0, degassed by argon, absorbance 302 nm
  rate of ONOO^− decomposition: increased
[2]
  oxidation of APF by ONOO^−: prevented the oxidation of APF

## nitro-tyrosine
[6]
  pKa: 7.4
